From patent US20100069493A1, “AQUEOUS PHARMACEUTICAL FORMULATION OF 4-[((4-CARBOXYBUTYL)-AMINO)METHYL]BENZOIC ACID” (BAYER HEALTHCARE AG, priority 2006, published 2010)
In brackets after ≈: the same amount, converted by molar mass.

Columns and labels:
Assay type in all cases: physicochemical
[1] = pKa of the ionizable groups of compound 1
Excerpt: (§1) However, there are limits to increasing the pH due to the use as infusion. Values of pH above pH 9.0 are borderline in relation to physiological tolerability.

[2] = Dilution experiments on 0.05 mg/ml solutions with and without trometamol (Table 2); conditions: for Appearance of the solution: 0.05 mg/ml solution with trometamol 0.01 molar, pH before dilution 8.74
Procedure: Dilution experiments on solutions with an active ingredient content of 0.05 mg/ml have shown that these can be diluted in a pH-stable and thus problem-free manner over a wide range only if they are buffered with a sufficient quantity of trometamol.
Without use of trometamol and on use of trometamol in a concentration of only 0.001 M, the pH falls greatly even with slight dilution (1+5). There is a high risk in this case that the active ingredient will precipitate on dilution with other infusion solutions (Table 2 a-c).

[3] = Dilution of 0.05 mg/ml compound 1 / 0.01 M trometamol solutions with standard infusion solutions (Table 3); conditions: trometamol 0.01 M
Procedure: Solutions comprising compound 1 in a concentration of 0.05 mg/ml and trometamol in a concentration of 0.01 M can be diluted problem-free with standard infusion solutions over a wide range. The dilution experiments shown in Table 3 were carried out concerning this:
All the dilution experiments were carried out in duplicate. […] It emerged that there is a marked decrease in the pH values to the region below 8.0 only with dilutions greater than 1:40. Precipitation of the active ingredient is no longer a worry with such great dilutions, because the solubility limit of compound 1 is no longer reached owing to the large amount of dilution medium.

[4] = Titration experiments with 0.01 N hydrochloric acid (acid burden, precipitation)
Procedure: It was possible to show in titration experiments that an acid burden of 0.01 N hydrochloric acid in solutions without trometamol leads to such a large fall in pH even on addition of less than 1 ml to the total content of a 50 ml infusion bottle that the active ingredient precipitates. On addition of 0.001 M trometamol buffer, precipitations are to be observed on addition of about 5 ml of 0.01 N hydrochloric acid. A solution with a trometamol content of 0.01 M is by contrast stable to precipitations on addition of acid up to more than 35 ml of 0.01 N hydrochloric acid.

[5] = Saturation solubility of compound 1 in various buffer media; conditions: aqueous buffer, thermodynamic from solid
Excerpt: as §1

## O=C(O)CCCCN(CCc1ccccc1OCc1ccc(CCc2ccccc2)cc1)Cc1ccc(C(=O)O)cc1 [compound 1, 4-[((4-Carboxybutyl)-{2-[(4-phenethylbenzyl)oxy]phenethyl}amino)methyl]benzoic acid]
[1]
  pKa1: 4.0
  pKa2: 4.7
  pKa3: 8.3
[2]; 0.05 mg/ml solution with trometamol 0.001 molar, mixing ratio 1 + 5, NaCl soln, final volume 251 ml, pH before dilution 8.69
  pH after dilution: 8.43
[2]; 0.05 mg/ml solution with trometamol 0.001 molar, mixing ratio 1 + 10, NaCl soln, final volume 275 ml, pH before dilution 8.69
  pH after dilution: 8.05
[2]; 0.05 mg/ml solution with trometamol 0.001 molar, mixing ratio 1 + 250, NaCl soln, final volume 300 ml, pH before dilution 8.69
  pH after dilution: 6.61
[2]; mixing ratio 1 + 5, NaCl soln, final volume 251 ml
  Appearance of the solution: clear
[2]; mixing ratio 1 + 10, NaCl soln, final volume 275 ml
  Appearance of the solution: clear
[2]; mixing ratio 1 + 250, NaCl soln, final volume 300 ml
  Appearance of the solution: clear
[2]; 0.05 mg/ml solution without trometamol, mixing ratio 1 + 5, NaCl soln, final volume 251 ml, pH before dilution 8.51
  pH after dilution: 6.40
[2]; 0.05 mg/ml solution without trometamol, mixing ratio 1 + 10, NaCl soln, final volume 275 ml, pH before dilution 8.51
  pH after dilution: 6.58
[2]; 0.05 mg/ml solution without trometamol, mixing ratio 1 + 250, NaCl soln, final volume 300 ml, pH before dilution 8.51
  pH after dilution: 6.70
[3]; all dilutions of Table 3, in duplicate
  Precipitation on dilution: No precipitations occurred
[3]; mixing ratio 1:2, NaCl soln, final volume 10 ml
  pH after dilution: 8.67
[3]; mixing ratio 1:4, NaCl soln, final volume 20 ml
  pH after dilution: 8.65
[3]; mixing ratio 1:10, Glucose soln, final volume 50 ml
  pH after dilution: 8.37
[3]; mixing ratio 1:10, NaCl soln, final volume 50 ml
  pH after dilution: 8.57
[3]; mixing ratio 1:10, Placebo soln, final volume 50 ml
  pH after dilution: 8.72
[3]; mixing ratio 1:10, Water, final volume 50 ml
  pH after dilution: 8.61
[3]; mixing ratio 1:20, NaCl soln, final volume 100 ml
  pH after dilution: 8.54
[3]; mixing ratio 1:40, NaCl soln, final volume 200 ml
  pH after dilution: 8.40
[3]; mixing ratio 1:200, NaCl soln, final volume 1000 ml
  pH after dilution: 7.85
[4]; solution with 0.001 M trometamol buffer, 50 ml infusion bottle
  Volume of 0.01 N hydrochloric acid at which precipitations are observed: about 5 ml
[4]; solution with trometamol content of 0.01 M, 50 ml infusion bottle
  Volume of 0.01 N hydrochloric acid up to which the solution is stable to precipitations: more than 35 ml
[4]; solution without trometamol, added to total content of a 50 ml infusion bottle
  Volume of 0.01 N hydrochloric acid at which the active ingredient precipitates: less than 1 ml
[5]; Ammonium chloride buffer solution, actual pH 9.5
  solubility: 75700 µg/mL (≈ 134000 µM)
[5]; Citric acid-phosphate buffer, actual pH 7.4
  solubility: 13.1 µg/mL (≈ 23.2 µM)
[5]; Citric acid-phosphate buffer, actual pH 8.0
  solubility: 64.2 µg/mL (≈ 113 µM)
[5]; Diethanolamine buffer solution, actual pH 10.0
  solubility: 89800 µg/mL (≈ 159000 µM)
[5]; HEPES buffer solution, actual pH 7.5
  solubility: 35.8 µg/mL (≈ 63.3 µM)
[5]; Phosphate buffer solution (0.2 M), actual pH 7.5
  solubility: 15.8 µg/mL (≈ 27.9 µM)
[5]; Phosphate buffer solution (0.3 M), actual pH 7.5
  solubility: 1.3 µg/mL (≈ 2.3 µM)
[5]; Phosphate buffer solution, actual pH 6.0
  solubility: 0.2 µg/mL (≈ 0.354 µM)
[5]; Phosphate buffer solution, actual pH 7.2
  solubility: 8.4 µg/mL (≈ 14.8 µM)
[5]; Phosphate buffer solution, actual pH 7.4
  solubility: 21.5 µg/mL (≈ 38 µM)
[5]; Phosphate buffer solution, actual pH 8.0
  solubility: 3.2 µg/mL (≈ 5.66 µM)
[5]; Phosphate buffer solution, actual pH 9.0
  solubility: 683 µg/mL (≈ 1210 µM)
[5]; Saline-phosphate buffer, actual pH 7.4
  solubility: 19 µg/mL (≈ 33.6 µM)
[5]; Sodium citrate buffer solution, actual pH 7.8
  solubility: 160 µg/mL (≈ 283 µM)
[5]; Tetrabutylammonium buffer solution, actual pH 7.0
  solubility: 12.8 µg/mL (≈ 22.6 µM)
